These results are taken from patent US12559863B2, “Macrocyclic modulators of disease associated protein misfolding and aggregation” (RESQ BIOTECH, priority 2017, dated 2026).

The target in assay [1] is T1, SOD1(A4V) (Homo sapiens, UniProt P00441, A5V).
T1 construct: polyHis; made in house; host or cells: E. coli Origami 2(DE3)
In words: Differential scanning fluorimetry of SOD1(A4V) with SYPRO Orange. It is filed as biochemical. The following applies: 5:1 peptide to protein ratio. The procedure: FIGS. 4A-4F: (A) Chemical structure of the selected cyclic pentapeptide SOD1C5-4. (B) Circular dichroism spectra of SOD1(A4V) incubated with/without the selected cyclic pentapeptides SOD1C5-4, AβC5-34 or AβC5-116 at room temperature for 90 d (1:1 and 5:1 indicate cyclic peptide:SOD1(A4V) molar ratios). Representative spectra from n=2 independent experiments are presented. (C) Dynamic light scattering analysis of SOD1(A4V) incubated with/without the selected cyclic pentapeptides at room temperature for 60 d. Representative data from n=2 independent experiments are presented. (D) Thioflavin T (ThT) fluorescence of SOD1(A4V) incubated with/without the selected cyclic pentapeptides at room temperature for 90 d. Representative data from n=2 independent experiments are presented. (E) Filter retardation assay of SOD1(A4V) incubated with/without the selected cyclic pentapeptides at 37° C. for 25 d. Representative images from n=2 independent experiments performed in replica duplicates are presented. (F) Differential scanning fluorimetry analysis of isolated SOD1(A4V) in the presence or absence of the selected cyclic pentapeptide SOD1C5-4 (5:1 peptide to protein ratio) using the conformation-sensitive dye SYPRO Orange. Data corresponding to n=2 independent experiments each one performed in three replicates±s.e.m. are presented.

In assay [2] the target is T1, SOD1(A4V). In words: Thioflavin T staining of SOD1(A4V). The following applies: 90 d at 25° C. It is filed as biochemical. The procedure: SOD1 or mutants thereof were overexpressed from the appropriate pET-SOD1 or PASK-SOD1 vectors in E. coli Origami 2(DE3) cells in LB medium containing 50 μg/mL kanamycin (for pET-SOD1) or 100 μg/mL ampicillin (for pASK-SOD1), 200 μM CuCl2, and 200 μM ZnCl2 by the addition of 0.01 mM IPTG (for pET-SOD1) or 0.2 μg/mL anhydrotetracycline (aTc) (for pASK-SOD1), either at 37° C. for 2-3 h or at 18° C. for about 16 h. Origami 2(DE3) cells were utilized in order to provide an oxidizing cytoplasmic environment in order to promote correct formation of disulfide bonds, which are required for proper SOD1 folding and function. Under these conditions, bacterially produced SOD1 is produced in dimeric and enzymatically active form, while it simultaneously co-exists with misfolded, soluble and insoluble SOD1 oligomeric/aggregated species (FIG. 3C). Thus, the acquired protein is found in a state that resembles the conditions encountered in human cells under stressful or pathogenic conditions. […]
40 μM SOD1(A4V) solutions, aged for 90 d at 25° C., with or without the selected synthetic peptides, were diluted to 10 μM with PBS. […] The mixture was agitated adequately by pipetting and immediately thereafter, fluorescence was monitored with excitation at 440 nm (EM slit=2.5 nm, PMT Voltage 700 V, response 0.4 s) using a HITACHI F-2500 (Japan) spectrofluorometer.

The subject of assay [3] is HEK293 cells transiently expressing SOD1(A4V)-GFP. The assay is described as follows: SOD1 aggregation and viability measurements in HEK293 cells. It is filed as cell-based, human. Particulars: 5 μM SOD1C5-4; compared to untreated cells. The procedure:
Human embryonic kidney (HEK) 293 cells were transfected using a Nucleofector (Amaxa) following the manufacturer's protocol. 6 ug DNA (SOD1 or SOD1(A4V) cloned into the pEGFP-N3 plasmid vector) were used per 2×10^6 cells and 5 μM synthetic SOD1C5-4 was added, where appropriate, before plating. Transfected cells were sorted 18 h later on a FACSAria to isolate GFP-positive clones. […] Collected cells were plated onto a 24-well plate at a density of 50,000 cells/well. Microscopy analysis was performed under an inverted microscope on day 1 and day 5 in culture after sorting. Cell counts are the average number of viable GFP-fluorescing cells of two areas per triplicate of wells of 24-well plates (magnification 20×). Cell counts are presented as percentage of viability of SOD1-overxoressing cell. As aggregate-positive cells are counted the fluorescing inclusion body-positive cells. Again, two areas per triplicate of wells of 24-well plate are averaged (magnification 20×). Aggregate-positive cells are presented as percentage of the total viable GFP-fluorescing cells.

T1 sequence (P00441 whole entry A5V): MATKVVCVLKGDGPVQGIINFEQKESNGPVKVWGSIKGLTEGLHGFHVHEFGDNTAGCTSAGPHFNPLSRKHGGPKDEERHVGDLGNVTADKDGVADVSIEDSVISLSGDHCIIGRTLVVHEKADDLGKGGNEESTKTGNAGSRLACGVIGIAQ

For cyclo-TWSVW (cyclic) [SOD1C5-4], the “propensity of SOD1(A4V) to expose hydrophobic surfaces (SYPRO Orange, heat-induced denaturation)” value in assay [1] is on record as “decrease the propensity of SOD1(A4V) to expose hydrophobic surfaces”. Moreover, the “formation of large, amyloid-like SOD1(A4V) aggregates by ThT staining” value in assay [2] is “dramatically decreased”. In assay [3], the “fluorescence of HEK293 cells expressing SOD1(A4V)-GFP” value is listed as “higher fluorescence”, the “inclusions comprising aggregated SOD1(A4V)-GFP” value is “fewer inclusions comprising aggregated SOD1(A4V)-GFP” and the “viability of HEK293 cells expressing SOD1(A4V)-GFP” value is “higher viability”.
